The nature of data set [1]: cells. Conditions: Homo sapiens, CRL8155.
Data set [2] concerns the target T1, Calmodulin-domain protein kinase 1 (Toxoplasma gondii, UniProt Q9BJF5).
T1 sequence (Q9BJF5 whole entry): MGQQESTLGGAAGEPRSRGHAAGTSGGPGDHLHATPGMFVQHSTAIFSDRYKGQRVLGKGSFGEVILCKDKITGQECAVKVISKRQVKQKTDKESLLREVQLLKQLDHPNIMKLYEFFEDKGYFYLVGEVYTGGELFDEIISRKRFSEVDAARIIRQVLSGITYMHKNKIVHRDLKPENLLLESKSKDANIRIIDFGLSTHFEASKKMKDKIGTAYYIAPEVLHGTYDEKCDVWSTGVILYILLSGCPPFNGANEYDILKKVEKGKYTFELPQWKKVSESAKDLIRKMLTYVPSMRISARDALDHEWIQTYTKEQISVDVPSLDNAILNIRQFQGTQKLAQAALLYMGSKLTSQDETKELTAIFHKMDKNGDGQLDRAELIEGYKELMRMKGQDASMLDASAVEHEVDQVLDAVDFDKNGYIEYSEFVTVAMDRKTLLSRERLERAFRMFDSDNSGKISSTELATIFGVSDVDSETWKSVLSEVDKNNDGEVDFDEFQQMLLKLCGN

Data set [3] can be described thus: in vivo. Conditions: mouse, plasma, po, 10 mg/kg.
Data set [4] is described as follows: in vivo. Conditions: mouse, po, 10 mg/kg.

Molecules are shown by their SMILES. Where only a bound is given, the exact number is not on record here.

Data on seven compounds can be found in ChEMBL document CHEMBL3108667, “Potent and selective inhibitors of CDPK1 from T. gondii and C. parvum based on a 5-aminopyrazole-4-carboxamide scaffold” (ACS Med Chem Lett, 2014).

The term EC50 denotes the concentration at which the effect is half-maximal. A low value points to higher potency in that assay. What is called IC50 is the concentration needed to halve the response being measured. One may read the AUC as the area under the concentration-time curve, a measure of exposure. Low readings indicate less exposure, high ones more exposure. The Cmax is the maximum level reached in the sampled fluid or tissue.

Turning to `CCOc1ccc2cc(-c3nn(C(C)(C)C)c(N)c3C(N)=O)ccc2c1`, the EC50 in data set [1] was more than 30 µM.

`NC(=O)c1c(-c2ccc3ccccc3c2)nn(CC(F)(F)F)c1N` had an EC50 in data set [1] of more than 30 µM.

In data set [1], `CC(C)(C)Cn1nc(-c2ccc3ccccc3c2)c(C(N)=O)c1N` yielded an EC50 of more than 40 µM.

As for `COc1ccc2cc(-c3nn(C(C)(C)C)c(N)c3C(N)=O)ccc2c1`, in data set [1], the EC50 was more than 40 µM.

In turn, `CC(C)(C)n1nc(-c2ccc3c(N)n[nH]c3c2)c(C(N)=O)c1N` returned an IC50 in data set [2] of 0.04 µM.

`CC(C)(C)n1nc(-c2cnc3ccccc3c2)c(C(N)=O)c1N` yielded an EC50 in data set [1] of more than 40 µM.

Compound `CCOc1ccc2cc(-c3nn(C(C)(C)C)c(N)c3C(N)=O)cnc2c1` came in with an EC50 in data set [1] of more than 30 µM. The AUC in data set [3] is 41.7 µM·h. In addition, the peak level in data set [4] (Cmax at 1 h) was 10 µM.
